Values of other authors, collected in publication PMC2766265 (Tetrahedron, 2008).

| Structure (SMILES) | agonist activity at the κ-opioid receptor (κ-opioid receptor) | binding to any of the opioid-receptor subtypes (opioid-receptor subtypes) |
| --- | --- | --- |
| COC(=O)[C@@H]1C[C@H](OC(C)=O)C(=O)[C@H]2[C@@]1(C)CC[C@H]1C(=O)O[C@H](c3ccoc3)C[C@]21C [Compound 1, Salvinorin A] | potent and selective agonist |  |
| C[C@]12C[C@H](c3ccoc3)OC(=O)[C@H]1CC[C@@]13COC(=O)[C@@H]1C=CC[C@H]23 [Compound 2, salviarin] |  | none of these diterpenes showed significant binding |
| CC(=O)OC1C=CC2C(=O)OCC23CCC2C(=O)OC(c4ccoc4)C(OC(C)=O)C2(C)C13 (stereo not drawn) [Compound 3, splendidin] |  | none of these diterpenes showed significant binding |
